# Experimental data published in BindingDB's records for doi:10.1021/jm00009a001 (Cns Research, 1995).
# Target: Metabotropic glutamate receptor 5 (Rattus norvegicus, UniProt P31424)
# Assay: Concentration for half maximal activation of metabotropic glutamate mGluR5a in rat
# Chain of Metabotropic glutamate receptor 5 (P31424 whole entry): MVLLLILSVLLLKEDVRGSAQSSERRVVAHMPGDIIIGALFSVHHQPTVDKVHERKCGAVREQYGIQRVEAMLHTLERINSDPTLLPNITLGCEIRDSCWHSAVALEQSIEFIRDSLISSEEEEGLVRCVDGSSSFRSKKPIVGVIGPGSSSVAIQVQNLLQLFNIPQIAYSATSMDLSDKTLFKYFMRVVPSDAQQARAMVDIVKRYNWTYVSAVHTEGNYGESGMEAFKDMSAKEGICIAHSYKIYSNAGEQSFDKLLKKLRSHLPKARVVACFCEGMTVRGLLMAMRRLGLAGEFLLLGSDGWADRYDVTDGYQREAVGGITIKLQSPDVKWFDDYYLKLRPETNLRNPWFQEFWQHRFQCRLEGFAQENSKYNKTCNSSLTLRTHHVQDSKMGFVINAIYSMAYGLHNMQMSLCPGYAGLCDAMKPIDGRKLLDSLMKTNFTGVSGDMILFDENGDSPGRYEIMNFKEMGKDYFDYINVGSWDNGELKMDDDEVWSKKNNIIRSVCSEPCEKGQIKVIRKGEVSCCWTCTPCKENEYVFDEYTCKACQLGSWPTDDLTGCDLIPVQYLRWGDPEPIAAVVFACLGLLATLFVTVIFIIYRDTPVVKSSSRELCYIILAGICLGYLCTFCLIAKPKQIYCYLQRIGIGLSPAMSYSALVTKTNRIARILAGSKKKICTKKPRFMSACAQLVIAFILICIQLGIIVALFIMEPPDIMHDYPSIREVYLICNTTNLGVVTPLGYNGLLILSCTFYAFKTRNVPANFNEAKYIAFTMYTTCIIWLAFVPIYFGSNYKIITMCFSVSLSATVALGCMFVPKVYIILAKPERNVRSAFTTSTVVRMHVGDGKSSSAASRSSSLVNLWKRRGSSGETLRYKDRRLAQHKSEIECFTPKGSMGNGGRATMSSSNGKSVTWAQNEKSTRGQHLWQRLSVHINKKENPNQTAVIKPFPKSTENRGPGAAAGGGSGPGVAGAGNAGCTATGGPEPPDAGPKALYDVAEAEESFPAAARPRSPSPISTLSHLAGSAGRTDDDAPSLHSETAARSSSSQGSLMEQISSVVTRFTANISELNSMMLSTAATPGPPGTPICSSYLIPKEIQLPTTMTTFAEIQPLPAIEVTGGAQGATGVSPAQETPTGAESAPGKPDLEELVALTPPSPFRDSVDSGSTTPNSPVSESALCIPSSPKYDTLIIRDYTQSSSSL
row,Structure (SMILES),EC50 [µM]
1,"N[C@@H](Cn1oc(=O)[nH]c1=O)C(=O)O [2-amino-3-(3,5-dioxo[1,2,4]oxadiazolidin-2-yl)propionic acid]",0.3
2,N[C@@H](CCC(=O)O)C(=O)O [L-Glutamic acid],10
3,"N[C@H](C(=O)O)c1cc(=O)[nH]o1 [(S)-Amino-(3-oxo-2,3-dihydro-isoxazol-5-yl)-acetic acid]",10
4,N[C@@]1(C(=O)O)CC[C@@H](C(=O)O)C1 [SMR001230688],50
